The values below come from patent US8129366B2, “VLA-4 inhibitory drug” (Daiichi Sankyo Company, Limited, priority 2005, dated 2012).

Broadly, the Ki is a dissociation constant, usually derived from enzyme kinetics or from competition with a known ligand. A low value points to tighter binding. The term IC50 denotes the midpoint of a concentration-inhibition curve. The solubility is how much of the substance goes into solution per volume. The low end stands for little dissolved substance, the high end for much dissolved substance.

Converted amounts (≈) assume the structure as drawn.

For one data set, the target named is T1, hα4 and β1 integrins (Homo sapiens, UniProt P05556+P13612).
T1 construct: expressed in transfected cells; host or cells: CHO cells
Put plainly: In vitro inhibition of binding between CHO cells expressing hα4 and β1 integrins and Eu3+-hVCAM-1 D1D7-IgG. Particulars: for Ki: CHO cells expressing hα4 and β1 integrins, Eu3+-hVCAM-1 D1D7-IgG ligand, without HSA; for IC50: in the presence of 3% human serum albumin (HSA final concentration 3%). A digest of the protocol: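 Transfected CHO cells, cultured 2 days, were incubated with compound and Eu³⁺-hVCAM-1 D1D7-IgG (diluted to 2 nM) for 1 h at room temperature. Buffer was 25 mM HEPES pH 7.5 with 1 mM Ca²⁺, 1 mM Mg²⁺, 4 mM Mn²⁺ and 0.1% BSA, ±3% HSA final. Cells were washed at 4 °C and read by DELFIA time-resolved fluorescence; Ki was derived from IC50 using the Scatchard Kd.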

Data set [1] is described as follows: Solubility test in first and second liquid of the Japanese Pharmacopoeia.
Method: The solubilities of the substance under test in the first liquid (JP1, pH=1.2) of the Japanese Pharmacopoeia and the second liquid (JP2, pH=6.8) of the Japanese Pharmacopoeia, were evaluated.
Where [2] appears, read: first liquid of the Japanese Pharmacopoeia (JP1), pH 1.2, simulated gastric fluid, First liquid of Japanese Pharmacopoeia (μg/mL), JP1, pH=1.2.
Where [3] appears, read: second liquid of the Japanese Pharmacopoeia (JP2), pH 6.8, aqueous buffer, Second liquid of Japanese Pharmacopoeia (μg/mL), JP2, pH=6.8.

T1 sequence (P13612 34-1032): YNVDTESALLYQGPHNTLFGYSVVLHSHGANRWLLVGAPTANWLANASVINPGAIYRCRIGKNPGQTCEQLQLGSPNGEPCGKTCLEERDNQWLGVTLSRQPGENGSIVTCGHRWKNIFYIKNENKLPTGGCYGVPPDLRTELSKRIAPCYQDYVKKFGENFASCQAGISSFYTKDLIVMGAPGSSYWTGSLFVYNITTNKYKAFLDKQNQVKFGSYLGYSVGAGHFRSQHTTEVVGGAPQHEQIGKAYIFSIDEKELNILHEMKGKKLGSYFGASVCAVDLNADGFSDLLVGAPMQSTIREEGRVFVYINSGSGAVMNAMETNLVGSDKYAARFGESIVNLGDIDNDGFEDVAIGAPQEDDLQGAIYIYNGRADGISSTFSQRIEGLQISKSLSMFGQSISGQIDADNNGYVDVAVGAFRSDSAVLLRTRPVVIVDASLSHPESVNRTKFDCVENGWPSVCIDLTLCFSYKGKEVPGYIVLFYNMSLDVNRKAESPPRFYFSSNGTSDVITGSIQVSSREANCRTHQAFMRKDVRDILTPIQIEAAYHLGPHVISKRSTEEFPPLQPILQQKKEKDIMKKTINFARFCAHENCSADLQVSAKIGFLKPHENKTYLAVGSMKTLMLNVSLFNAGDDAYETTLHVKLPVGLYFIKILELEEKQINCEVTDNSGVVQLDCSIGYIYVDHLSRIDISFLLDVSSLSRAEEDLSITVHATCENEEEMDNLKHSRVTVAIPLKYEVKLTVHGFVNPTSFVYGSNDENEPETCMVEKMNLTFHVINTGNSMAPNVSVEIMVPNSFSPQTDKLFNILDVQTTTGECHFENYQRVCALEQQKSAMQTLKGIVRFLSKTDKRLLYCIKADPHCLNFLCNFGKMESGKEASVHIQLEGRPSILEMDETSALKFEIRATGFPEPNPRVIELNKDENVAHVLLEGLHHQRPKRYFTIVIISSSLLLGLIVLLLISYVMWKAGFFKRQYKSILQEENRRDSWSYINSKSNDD
T1 sequence (P05556 21-798): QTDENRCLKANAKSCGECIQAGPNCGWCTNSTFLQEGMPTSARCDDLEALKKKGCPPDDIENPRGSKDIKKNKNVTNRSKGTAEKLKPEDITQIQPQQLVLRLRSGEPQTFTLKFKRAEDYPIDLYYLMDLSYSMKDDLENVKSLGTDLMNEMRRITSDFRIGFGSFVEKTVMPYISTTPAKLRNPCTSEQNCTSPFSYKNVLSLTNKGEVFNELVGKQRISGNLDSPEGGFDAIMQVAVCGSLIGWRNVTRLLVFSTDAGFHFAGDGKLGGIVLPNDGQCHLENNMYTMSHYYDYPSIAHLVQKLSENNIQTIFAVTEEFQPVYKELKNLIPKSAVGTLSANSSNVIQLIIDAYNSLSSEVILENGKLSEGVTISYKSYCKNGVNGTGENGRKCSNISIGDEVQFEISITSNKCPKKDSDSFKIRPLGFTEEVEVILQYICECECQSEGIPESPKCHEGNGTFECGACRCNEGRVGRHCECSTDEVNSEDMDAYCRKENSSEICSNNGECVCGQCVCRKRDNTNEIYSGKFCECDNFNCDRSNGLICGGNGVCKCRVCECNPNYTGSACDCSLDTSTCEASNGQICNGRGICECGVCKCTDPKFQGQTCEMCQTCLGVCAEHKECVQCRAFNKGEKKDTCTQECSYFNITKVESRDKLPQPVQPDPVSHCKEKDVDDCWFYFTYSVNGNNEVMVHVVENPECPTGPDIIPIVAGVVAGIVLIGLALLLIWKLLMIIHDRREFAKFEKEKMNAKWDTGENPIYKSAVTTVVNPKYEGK

For `CCO[C@H]1CCN([C@H]2C[C@@H](CO[C@H]3CC[C@H](C(=O)O)CC3)N(C(=O)Cc3cc(Cl)c(NC(=O)c4cn(C)c5ccccc45)cc3Cl)C2)C1` [Example 36, Trans-4-[1-[[2,5-dichloro-4-[(1-methyl-1H-indol-3-ylcarbonyl)amino]phenyl]acetyl]-(4S)-[(3S)-ethoxypyrrolidin-1-yl]-(2S)-pyrrolidinylmethoxy]cyclohexanecarboxylic acid], on hα4 and β1 integrins, the Ki amounted to 5.9 nM and the IC50 amounted to 24 nM. This compound showed a solubility in data set [1] (setting [2]) of 1940 µg/mL (≈ 2770 µM). This compound also had a solubility in data set [1] (setting [3]) of 1840 µg/mL (≈ 2630 µM).
In the same order, the values of `CCO[C@@H]1CCN([C@H]2C[C@@H](CO[C@H]3CC[C@H](C(=O)O)CC3)N(C(=O)Cc3cc(Cl)c(NC(=O)c4csc5ccccc45)cc3F)C2)C1` [Example 34, Trans-4-[1-[[4-[(benzo[b]thiophen-3-ylcarbonyl)amino]-5-chloro-2-fluorophenyl]acetyl]-(4S)-[(3R)-ethoxypyrrolidin-1-yl]-(2S)-pyrrolidinylmethoxy]cyclohexanecarboxylic acid] are 2 nM, 9.9 nM, > 2000 µg/mL and 1640 µg/mL (≈ 2390 µM).
In the same order, the values of `CO[C@@H]1CCCN([C@H]2C[C@@H](CO[C@H]3CC[C@H](C(=O)O)CC3)N(C(=O)Cc3cc(Cl)c(NC(=O)c4csc5ccccc45)cc3F)C2)C1` [Example 106, Trans-4-[1-[[4-[(benzo[b]thiophen-3-ylcarbonyl)amino]-5-chloro-2-fluorophenyl]acetyl]-(4S)-[(3R)-methoxypiperidin-1-yl]-(2S)-pyrrolidinylmethoxy]cyclohexanecarboxylic acid] are 1.2 nM, 9.2 nM, > 2000 µg/mL and 1580 µg/mL (≈ 2310 µM).
The like results for `Cn1cc(C(=O)Nc2cc(F)c(CC(=O)N3C[C@@H](N4CCOCC4)C[C@H]3CO[C@H]3CC[C@H](C(=O)O)CC3)cc2Cl)c2ccccc21` [Example 78, Trans-4-[1-[[5-chloro-2-fluoro-4-[(1-methyl-1H-indol-3-ylcarbonyl)amino]phenyl]acetyl]-(4S)-(morpholin-4-yl)-(2S)-pyrrolidinylmethoxy]cyclohexanecarboxylic acid] were, in that order, 1.5 nM, 5.2 nM, > 2000 µg/mL and > 2000 µg/mL.
Regarding `O=C(Nc1cc(F)c(CC(=O)N2C[C@@H](N3CC(CN4CCOCC4)C3)C[C@H]2CO[C@H]2CC[C@H](C(=O)O)CC2)cc1Cl)c1coc2ccccc12` [Example 30, Trans-4-[1-[[4-[(benzo[b]furan-3-ylcarbonyl)amino]-5-chloro-2-fluorophenyl]acetyl]-(4S)-[3-(4-morpholinylmethyl)azetidin-1-yl]-(2S)-pyrrolidinylmethoxy]cyclohexanecarboxylic acid], at hα4 and β1 integrins, affinity was put at a Ki of 4.6 nM. Moreover, the IC50 on hα4 and β1 integrins came out at 12 nM. The solubility in data set [1] (setting [2]) and in data set [1] (setting [3]) was 1100 µg/mL (≈ 1550 µM) throughout.
For `O=C(Nc1cc(F)c(CC(=O)N2C[C@@H](N3CC(N4CCCCC4)C3)C[C@H]2CO[C@H]2CC[C@H](C(=O)O)CC2)cc1Cl)c1csc2ccccc12` [Example 28, Trans-4-[1-[[4-[(benzo[b]thiophen-3-ylcarbonyl)amino]-5-chloro-2-fluorophenyl]acetyl]-(4S)-[3-(piperidin-1-yl)azetidin-1-yl]-(2S)-pyrrolidinylmethoxy]cyclohexanecarboxylic acid], at hα4 and β1 integrins, the Ki was 2.6 nM and the IC50 was found to be 12 nM. For the same compound, the concentration in solution in data set [1] (setting [2]) (solubility) came to 1100 µg/mL (≈ 1550 µM). This compound registered a solubility in data set [1] (setting [3]) of 1100 µg/mL (≈ 1550 µM).
Consider `COC[C@@H]1C[C@H](OC)CN1[C@H]1C[C@@H](CO[C@H]2CC[C@H](C(=O)O)CC2)N(C(=O)Cc2cc(Cl)c(NC(=O)c3cn(C)c4ccccc34)cc2Cl)C1` [Example 46, Trans-4-[1-[[2,5-dichloro-4-[(1-methyl-1H-indol-3-ylcarbonyl)amino]phenyl]acetyl]-(4S)-[(2S)-methoxymethyl-(4S)-methoxypyrrolidin-1-yl]-(2S)-pyrrolidinylmethoxy]cyclohexanecarboxylic acid], for which, at hα4 and β1 integrins, the Ki is 7.3 nM and the IC50 was 15 nM. In addition, the solubility in data set [1] (setting [2]) is 1200 µg/mL (≈ 1640 µM). Besides, in data set [1] (setting [3]), the solubility is 1200 µg/mL (≈ 1640 µM).
Consider `O=C(Nc1cc(Cl)c(CC(=O)N2C[C@@H](N3CCCC3)C[C@H]2CO[C@H]2CC[C@H](C(=O)O)CC2)cc1Cl)c1csc2ccccc12` [Example 31, Trans-4-[1-[[4-[(benzo[b]thiophen-3-ylcarbonyl)amino]-2,5-dichlorophenyl]acetyl]-(4S)-(pyrrolidin-1-yl)-(2S)-pyrrolidinylmethoxy]cyclohexanecarboxylic acid], for which, at hα4 and β1 integrins, the Ki came out at 1.2 nM and the IC50 worked out at 5.8 nM. The solubility in data set [1] (setting [2]) was 1840 µg/mL (≈ 2800 µM). This compound also yielded a solubility in data set [1] (setting [3]) of 1680 µg/mL (≈ 2560 µM).
The like results for `CN(C)C(=O)C1CCN([C@H]2C[C@@H](CO[C@H]3CC[C@H](C(=O)O)CC3)N(C(=O)Cc3cc(Cl)c(NC(=O)c4coc5ccccc45)cc3Cl)C2)CC1` [Example 107, Trans-4-[1-[[4-[(benzo[b]furan-3-ylcarbonyl)amino]-2,5-dichlorophenyl]acetyl]-(4S)-[4-(dimethylcarbamoyl)piperidin-1-yl]-(2S)-pyrrolidinylmethoxy]cyclohexanecarboxylic acid] were, in that order, 1.8 nM, 7.6 nM, 1200 µg/mL (≈ 1650 µM) and 1200 µg/mL (≈ 1650 µM).
As for `COC1CN([C@H]2C[C@@H](CO[C@H]3CC[C@H](C(=O)O)CC3)N(C(=O)Cc3cc(Cl)c(NC(=O)c4cn(C)c5ccccc45)cc3F)C2)C1` [Example 1], at hα4 and β1 integrins, the Ki amounted to 1.9 nM and the IC50 was 15 nM. The solubility in data set [1] (setting [2]) was > 2000 µg/mL. Also, the solubility in data set [1] (setting [3]) is > 2000 µg/mL.
Take `CN(C)C(=O)[C@@H]1CCCN1[C@H]1C[C@@H](CO[C@H]2CC[C@H](C(=O)O)CC2)N(C(=O)Cc2cc(Cl)c(NC(=O)c3csc4ccccc34)cc2F)C1` [Example 42]: the affinity on hα4 and β1 integrins, expressed as Ki, was 0.32 nM. The IC50 at hα4 and β1 integrins amounted to 1.1 nM. Also, the “Solubility, Second liquid of Japanese Pharmacopoeia” value in data set [1] (JP2, pH=6.8) was 1931 µg/mL. In addition, the solubility in data set [1] (setting [2]) and in data set [1] (setting [3]) was > 2000 µg/mL in each case.
As for `CC(=O)N[C@H]1CCN([C@H]2C[C@@H](CO[C@H]3CC[C@H](C(=O)O)CC3)N(C(=O)Cc3cc(Cl)c(NC(=O)c4csc5ccccc45)cc3F)C2)C1` [Example 66, Trans-4-[1-[[4-[(benzo[b]thiophen-3-ylcarbonyl)amino]-5-chloro-2-fluorophenyl]acetyl]-(4S)-[(3S)-acetamidopyrrolidin-1-yl]-(2S)-pyrrolidinylmethoxy]cyclohexanecarboxylic acid], on hα4 and β1 integrins, the Ki was 0.42 nM and the IC50 is 14 nM. Further, the solubility in data set [1] (setting [2]) was > 2000 µg/mL. In addition, in data set [1] (setting [3]), the solubility was > 2000 µg/mL.
For `CCO[C@H]1CN([C@H]2C[C@@H](CO[C@H]3CC[C@H](C(=O)O)CC3)N(C(=O)Cc3cc(Cl)c(NC(=O)c4cn(C)c5ccccc45)cc3Cl)C2)C[C@H]1OCC` [Example 63, Trans-4-[1-[[2,5-dichloro-4-[(1-methyl-1H-indol-3-ylcarbonyl)amino]phenyl]acetyl]-(4S)-(3,4-cis-diethoxypyrrolidin-1-yl)-(2S)-pyrrolidinylmethoxy]cyclohexanecarboxylic acid], on hα4 and β1 integrins, the Ki turned out to be 4.7 nM and the IC50 came out at 23 nM. The compound further gave a solubility in data set [1] (setting [2]) of 1000 µg/mL (≈ 1340 µM). The compound also had a solubility in data set [1] (setting [3]) of 1000 µg/mL (≈ 1340 µM).
